Test results taken from PubChem BioAssay AID192 (DTP/NCI, 2004).
“And” between values parts separate entries of the source, which are not always exact repeats. Equal entries are not always repeated. Inconclusive results and toxic doses are left out. Peptide text beside a SMILES is read from it. * marks the point of attachment. Bn = c1ccc(C*)cc1

Tested on: BDF1 mice, B16 melanoma ip, median survival T/C
Experiment: NCI In Vivo Anticancer Drug Screen. Data for tumor model B16 Melanoma (intraperitoneal) in B6D2F1 (BDF1) mice
Conditions: endpoint: median survival time, higher = longer survival
Procedure, shortened: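 Compounds were tested in mice carrying transplantable tumors. Survival or tumor size was recorded, and each value is the treated-group measurement (T) divided by that of the vehicle-treated control group (C).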

[1] = dose: 6.25 mg/kg/injection, schedule: Q01DX009 (ip), vehicle: saline
[2] = dose: 12.5 mg/kg/injection, schedule: Q01DX009 (ip), vehicle: saline
[3] = dose: 25.0 mg/kg/injection, schedule: Q01DX009 (ip), vehicle: saline
[4] = dose: 50.0 mg/kg/injection, schedule: Q01DX009 (ip), vehicle: saline
[5] = dose: 25.0 mg/kg/injection, schedule: Q01DX009 (ip), vehicle: Klucel (hydroxypropylcellulose) (HPC)
[6] = dose: 100.0 mg/kg/injection, schedule: Q01DX009 (ip), vehicle: Klucel (hydroxypropylcellulose) (HPC)
[7] = dose: 200.0 mg/kg/injection, schedule: Q01DX009 (ip), vehicle: Klucel (hydroxypropylcellulose) (HPC)
[8] = dose: 25.0 mg/kg/injection, schedule: Q01DX009 (ip), vehicle: saline with Tween-80

CCN(CC)CCOC(=O)c1ccc(N)cc1
T/C [1]: 100 % of control
T/C [2]: 92 % of control
T/C [3]: 100 % of control
T/C [4]: 107 % of control
T/C (dose: 100.0 mg/kg/injection, schedule: Q01DX009 (ip), vehicle: saline): 105 % of control

Cc1cccc(C)c1NC(=O)c1ccccc1
T/C [2]: 93 % of control
T/C [5]: 89 % of control
T/C (dose: 50.0 mg/kg/injection, schedule: Q01DX009 (ip), vehicle: Klucel (hydroxypropylcellulose) (HPC)): 100 % of control
T/C [4]: 90 % of control

Brc1ccc2c(c1)-c1ccccc1C1=NCCN12
T/C (dose: 2.5 mg/kg/injection, schedule: Q01DX009 (ip), vehicle: Klucel (hydroxypropylcellulose) (HPC)): 118 % of control
T/C (dose: 5.0 mg/kg/injection, schedule: Q01DX009 (ip), vehicle: Klucel (hydroxypropylcellulose) (HPC)): 103 % of control
T/C (dose: 5.0 mg/kg/injection, schedule: Q04DX003 (ip), vehicle: saline with Tween-80): 100 % of control
T/C (dose: 10.0 mg/kg/injection, schedule: Q01DX009 (ip), vehicle: Klucel (hydroxypropylcellulose) (HPC)): 93 % of control
T/C (dose: 10.0 mg/kg/injection, schedule: Q04DX003 (ip), vehicle: saline with Tween-80): 102 % of control
T/C (dose: 10.0 mg/kg/injection, schedule: Q04DX003 (ip), vehicle: saline): 105 % of control
T/C (dose: 20.0 mg/kg/injection, schedule: Q04DX003 (ip), vehicle: saline with Tween-80): 100 % of control

CC(C)C[C@H](O)C(=O)O
T/C [3]: 104 % of control
T/C [4]: 110 % of control

CCOc1cc(N2CCOCC2)c(OCC)cc1N
T/C [1]: 95 % of control
T/C [2]: 102 % of control
T/C [3]: 100 % of control

COc1cc2c(c(OC)c1OC)-c1ccc(OC)c(=O)cc1[C@@H](NC(=O)CCl)CC2
T/C (dose: 0.25 mg/kg/injection, schedule: Q01DX009 (ip), vehicle: saline with Tween-80): 154 % of control
T/C (dose: 0.5 mg/kg/injection, schedule: Q01DX009 (ip), vehicle: saline with Tween-80): 161 % of control

C=CCOC(=O)C1CC(C(=O)OCC=C)C(C(=O)OCC=C)C1C(=O)OCC=C (stereo not given)
T/C (dose: 50.0 mg/kg/injection, schedule: Q01DX009 (ip), vehicle: other): 96 % of control
T/C (dose: 100.0 mg/kg/injection, schedule: Q01DX009 (ip), vehicle: other): 105 % of control
T/C (dose: 200.0 mg/kg/injection, schedule: Q01DX009 (ip), vehicle: other): 98 % of control

COc1cc(C=Nc2cccc(C(F)(F)F)c2)ccc1O
T/C [6]: 99 % of control
T/C [7]: 94 % of control

Cc1n[nH]c2ccc([N+](=O)[O-])cc2c1=O
T/C (dose: 6.25 mg/kg/injection, schedule: Q01DX009 (ip), vehicle: saline with Tween-80): 97 % of control
T/C (dose: 12.5 mg/kg/injection, schedule: Q01DX009 (ip), vehicle: saline with Tween-80): 90 % of control
T/C [8]: 95 % of control

COc1cccc2c1C(=O)c1c(O)c3c(c(O)c1C2=O)C[C@@](O)(/C(CO)=N/NC(=O)c1ccc(Cl)c(Cl)c1)C[C@@H]3OC1CC(N)C(O)C(C)O1 (stereo not given in full)
T/C (dose: 2.5 mg/kg/injection, schedule: Q01DX001 (ip), vehicle: other): 119 % of control
T/C (dose: 10.0 mg/kg/injection, schedule: Q01DX001 (ip), vehicle: water): 111 % of control and 252 % of control
T/C (dose: 20.0 mg/kg/injection, schedule: Q01DX001 (ip), vehicle: other): 247 % of control
T/C (dose: 20.0 mg/kg/injection, schedule: Q01DX001 (ip), vehicle: water): 102 % of control
T/C (dose: 40.0 mg/kg/injection, schedule: Q01DX001 (ip), vehicle: water): 250 % of control
T/C (dose: 80.0 mg/kg/injection, schedule: Q01DX001 (ip), vehicle: water): 105 % of control

CCCCc1c(C)[nH]c(=S)[nH]c1=O
T/C [8]: 110 % of control
T/C (dose: 50.0 mg/kg/injection, schedule: Q01DX009 (ip), vehicle: saline with Tween-80): 104 % of control
T/C (dose: 100.0 mg/kg/injection, schedule: Q01DX009 (ip), vehicle: saline with Tween-80): 97 % of control

COc1cccc(CNc2ccc(C)cc2C)c1OC
T/C [6]: 96 % of control
T/C [7]: 103 % of control
T/C (dose: 400.0 mg/kg/injection, schedule: Q01DX009 (ip), vehicle: Klucel (hydroxypropylcellulose) (HPC)): 96 % of control

COC(=O)C(CC(C)C)NC(=O)C(N)Cc1ccc(OCc2ccccc2)cc1 (stereo not given) (H-Tyr(Bn)-Leu-OMe; configuration not given here)
T/C (dose: 12.5 mg/kg/injection, schedule: Q01DX009 (ip), vehicle: Klucel (hydroxypropylcellulose) (HPC)): 110 % of control
T/C [5]: 96 % of control

[CH3][Hg][O]C(C)=O
T/C (dose: 3.12 mg/kg/injection, schedule: Q01DX009 (ip), vehicle: Klucel (hydroxypropylcellulose) (HPC)): 94 % of control
T/C (dose: 6.25 mg/kg/injection, schedule: Q01DX009 (ip), vehicle: Klucel (hydroxypropylcellulose) (HPC)): 86 % of control

CN=C1N[N+]2=CCCCC2S1 (stereo not given)
T/C (dose: 40.0 mg/kg/injection, schedule: Q01DX011 (ip), vehicle: saline): 104 % of control
T/C (dose: 60.0 mg/kg/injection, schedule: Q01DX011 (ip), vehicle: saline): 112 % of control
T/C (dose: 80.0 mg/kg/injection, schedule: Q01DX011 (ip), vehicle: saline): 111 % of control
